Results on 41 molecules are retold here after US20240279221A1, “HETEROCYCLIC COMPOUNDS AND METHODS OF USE” (Schrödinger, Inc., priority 2021, published 2024).

The target in this experiment is SOS1:KRAS (G12C) interaction (Homo sapiens (Human), UniProt Q07889). The experiment in a line: SOS1-KRas(G12C) FRET Assay. The conditions noted are these: 0.5 nM His10-SOS1 (res. 564-1049), 2.5 nM GST-KRAS (res. 1-169, G12C); read-out: SOS-KRas(G12C) FRET IC50. Type of experiment: binding. As for the experimental part:
Inhibition of the SOS1:KRAS interaction was measured using purified GST-tagged KRAS (res. 1-169, G12C, purified based on Hillig, et al., Proc Natl Acad Sci USA (2019); 116(7):2551-2560) and recombinant His10-SOS1 (res. 564-1049; purified based on Hillig, et al.). The final assay was performed at 20 uL with 0.5 nM SOS1 protein and 2.5 nM KRAS protein in a buffer of PBS, 0.1% BSA, 5 mM MgCl2, 0.0025% Igepal, 100 mM KF, 5 mM DTT in a white 384 square well OptiPlate (PerkinElmer, Cat. 6007290). A 2× KRAS working solution was prepared in an assay buffer containing 5 nM GST-KRAS G12C and 2 nM anti-GST-Eu(K) (Cisbio, Cat. 61GSTKLA) and pre-incubated for 15 minutes at 25° C. Compounds were serially diluted in 100% DMSO from 2 mM (positive control, compound I-13, PCT Publ. No. WO2018/115380) or 20 mM and then diluted 1:20 in assay buffer before incubation with a solution of SOS1 protein mixed 1:5 with anti-6His-XL665 FRET donor (Cisbio, Cat. 61HISXL) for 15 minutes at 25° C. before addition of 2× KRAS working solution. The final DMSO concentration is 0.5%. Plates were incubated at RT for 2 hrs before the FRET signal was measured using Envision at emission 665 nm and 615 nm. FRET signal was converted to percentage of protein-protein interaction using the following equation:
[formula] • C: signal with compound treatment • P: signal for positive control (DMSO) • N: signal for negative control (no SOS1 added) • IC50 and Hill coefficients were obtained using Graph Pad Prism (Graph Pad software, Inc, USA) with non-linear regression analysis.

Sequence of SOS1:KRAS (G12C) interaction (Q07889 564-1049, stated change not applied): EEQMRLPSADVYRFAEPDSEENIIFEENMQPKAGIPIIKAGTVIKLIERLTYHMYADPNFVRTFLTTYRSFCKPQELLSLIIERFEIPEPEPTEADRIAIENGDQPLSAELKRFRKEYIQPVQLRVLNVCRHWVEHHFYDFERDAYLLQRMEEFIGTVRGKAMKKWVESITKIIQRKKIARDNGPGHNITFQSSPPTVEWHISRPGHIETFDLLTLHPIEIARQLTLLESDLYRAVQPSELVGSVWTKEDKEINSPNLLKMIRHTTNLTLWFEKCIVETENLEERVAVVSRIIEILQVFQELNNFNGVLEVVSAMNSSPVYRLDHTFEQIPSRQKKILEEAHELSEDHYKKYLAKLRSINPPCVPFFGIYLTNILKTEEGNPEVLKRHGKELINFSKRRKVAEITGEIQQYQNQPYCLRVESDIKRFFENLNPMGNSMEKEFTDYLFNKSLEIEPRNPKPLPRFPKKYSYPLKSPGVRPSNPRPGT

As for `Cc1c([C@@H](C)Nc2nn(C)c(=O)c3cc(=O)n([C@H]4C[C@@H]4c4cncc(F)c4)cc23)cccc1C(F)(F)F` (single isomer, unassigned) [Example 91], the concentration for half-maximal inhibition (IC50) was determined as 97.4 nM.

`Cc1c([C@@H](C)Nc2nn(C)c(=O)c3cc(=O)n([C@@H]4C[C@H]4c4cncc(F)c4)cc23)cccc1C(F)(F)F` (single isomer, unassigned) [Example 92]: the IC50 turned out to be 567 nM.

Consider `C[C@@H](Nc1nn(C)c(=O)c2cc(=O)n([C@H]3C[C@@H]3c3cncc(F)c3)cc12)c1cccc(C(F)F)c1F` (single isomer, unassigned) [Example 93], for which the IC50 turned out to be 60.8 nM.

On to `C[C@@H](Nc1nn(C)c(=O)c2cc(=O)n([C@@H]3C[C@H]3c3cncc(F)c3)cc12)c1cccc(C(F)F)c1F` (single isomer, unassigned) [Example 94], for which the half-maximal inhibitory concentration (IC50) is 378 nM.

`C[C@@H](Nc1nn(C)c(=O)c2cc(=O)n([C@]3(C(F)(F)F)CCNC3)cc12)c1cccc(C(F)F)c1F` (single isomer, unassigned) [Example 95]: the IC50 is 394 nM.

For `C[C@@H](Nc1nn(C)c(=O)c2cc(=O)n([C@@]3(C(F)(F)F)CCNC3)cc12)c1cccc(C(F)F)c1F` (single isomer, unassigned) [Example 96], the IC50 was determined as 29.2 nM.

`C[C@@H](Nc1nn(C)c(=O)c2cc(=O)n([C@@]3(C(F)(F)F)CCN(C)C3)cc12)c1cccc(C(F)F)c1F` (single isomer, unassigned) [Example 97]: the IC50 was found to be 65.6 nM.

Turning to `C[C@@H](Nc1nn(C)c(=O)c2cc(=O)n([C@]3(C(F)(F)F)CCN(C)C3)cc12)c1cccc(C(F)F)c1F` (single isomer, unassigned) [Example 98], the IC50 was 989 nM.

In the case of `CC(=O)N1CC[C@@](n2cc3c(N[C@H](C)c4cccc(C(F)F)c4F)nn(C)c(=O)c3cc2=O)(C(F)(F)F)C1` (single isomer, unassigned) [Example 99], the half-inhibitory concentration (IC50) amounted to 9.03 nM.

`CC(=O)N1CC[C@](n2cc3c(N[C@H](C)c4cccc(C(F)F)c4F)nn(C)c(=O)c3cc2=O)(C(F)(F)F)C1` (single isomer, unassigned) [Example 100]: the concentration for half-maximal inhibition (IC50) was found to be 1920 nM.

Regarding `C[C@@H](Nc1nn(C)c(=O)c2cc(=O)n([C@@]3(C(F)F)CCOC3)cc12)c1cccc(C(F)F)c1F` (single isomer, unassigned) [Example 119], the half-maximal inhibitory concentration (IC50) stood at 411 nM.

For `C[C@@H](Nc1nn(C)c(=O)c2cc(=O)n([C@]3(C(F)F)CCOC3)cc12)c1cccc(C(F)F)c1F` (single isomer, unassigned) [Example 120], the IC50 is 19.9 nM.

As to `C[C@@H](Nc1nn(C)c(=O)c2cc(=O)n([C@H]3CCC(F)(F)C3)cc12)c1cccc(C(F)F)c1F` (single isomer, unassigned) [Example 121], the IC50 came out at 125 nM.

With `C[C@@H](Nc1nn(C)c(=O)c2cc(=O)n([C@@H]3CCC(F)(F)C3)cc12)c1cccc(C(F)F)c1F` (single isomer, unassigned) [Example 122], the IC50 was 315 nM.

On to `C[C@@H](Nc1nn(C)c(=O)c2cc(=O)n([C@@H]3CC34CC4)cc12)c1cccc(C(F)F)c1F` (single isomer, unassigned) [Example 128], for which the IC50 is 287 nM.

Consider `C[C@@H](Nc1nn(C)c(=O)c2cc(=O)n([C@H]3CC34CC4)cc12)c1cccc(C(F)F)c1F` (single isomer, unassigned) [Example 129], for which the IC50 was 112 nM.

With `C[C@@H](Nc1nn(C)c(=O)c2cc(=O)n([C@H]3CC34CCC(F)(F)CC4)cc12)c1cccc(C(F)F)c1F` (single isomer, unassigned) [Example 130], the 50% inhibitory concentration (IC50) came out at 82.6 nM.

Take `C[C@@H](Nc1nn(C)c(=O)c2cc(=O)n([C@@H]3CC34CCC(F)(F)CC4)cc12)c1cccc(C(F)F)c1F` (single isomer, unassigned) [Example 131]: the concentration for half-maximal inhibition (IC50) came to 277 nM.

Turning to `C[C@@H](Nc1nn(C)c(=O)c2cc(=O)n([C@@H]3CC3(C)C)cc12)c1cccc(C(F)F)c1F` (single isomer, unassigned) [Example 132], the IC50 was 152 nM.

Take `C[C@@H](Nc1nn(C)c(=O)c2cc(=O)n([C@H]3CC3(C)C)cc12)c1cccc(C(F)F)c1F` (single isomer, unassigned) [Example 133]: the half-maximal inhibitory concentration (IC50) is 245 nM.

Consider `C[C@@H](Nc1nn(C)c(=O)c2cc(=O)n([C@H]3C[C@@H]3C3CC3)cc12)c1cccc(C(F)F)c1F` (single isomer, unassigned) [Example 135], for which the 50% inhibitory concentration (IC50) was 70.5 nM.

Take `C[C@@H](Nc1nn(C)c(=O)c2cc(=O)n([C@@H]3C[C@H]3C3CC3)cc12)c1cccc(C(F)F)c1F` (single isomer, unassigned) [Example 136]: the IC50 is 185 nM.

For `C[C@@H](Nc1nn(C)c(=O)c2cc(=O)n([C@H]3C[C@@H]3C(F)(F)F)cc12)c1cccc(C(F)F)c1F` (single isomer, unassigned) [Example 137], the concentration for half-maximal inhibition (IC50) worked out at 91.2 nM.

In the case of `C[C@@H](Nc1nn(C)c(=O)c2cc(=O)n([C@@H]3C[C@H]3C(F)(F)F)cc12)c1cccc(C(F)F)c1F` (single isomer, unassigned) [Example 138], the 50% inhibitory concentration (IC50) turned out to be 434 nM.

In the case of `CC(=O)N1C[C@H]2C[C@@]2(n2cc3c(N[C@H](C)c4cccc(C(F)F)c4F)nn(C)c(=O)c3cc2=O)C1` (single isomer, unassigned) [Example 139], the IC50 came to 120 nM.

Turning to `CC(=O)N1C[C@@H]2C[C@]2(n2cc3c(N[C@H](C)c4cccc(C(F)F)c4F)nn(C)c(=O)c3cc2=O)C1` (single isomer, unassigned) [Example 140], the 50% inhibitory concentration (IC50) was found to be 31.3 nM.

`C[C@@H](Nc1nn(C)c(=O)c2cc(=O)n([C@@]34C[C@@H]3CN(C(=O)C3CC3)C4)cc12)c1cccc(C(F)F)c1F` (single isomer, unassigned) [Example 141]: the IC50 stood at 25 nM.

For the molecule `C[C@@H](Nc1nn(C)c(=O)c2cc(=O)n([C@]34C[C@H]3CN(C(=O)C3CC3)C4)cc12)c1cccc(C(F)F)c1F` (single isomer, unassigned) [Example 142], the concentration for half-maximal inhibition (IC50) was found to be 77.2 nM.

With `CC(=O)N1CC[C@@](C)(n2cc3c(N[C@H](C)c4cccc(C(F)F)c4F)nn(C)c(=O)c3cc2=O)C1` (single isomer, unassigned) [Example 143], the IC50 is 7.8 nM.

In the case of `CC(=O)N1CC[C@](C)(n2cc3c(N[C@H](C)c4cccc(C(F)F)c4F)nn(C)c(=O)c3cc2=O)C1` (single isomer, unassigned) [Example 144], the IC50 stood at 209 nM.

`COc1c(=O)n([C@@]2(C(F)(F)F)CCOC2)cc2c(N[C@H](C)c3cccc(C(F)F)c3F)nn(C)c(=O)c12` (single isomer, unassigned) [Example 157]: the half-inhibitory concentration (IC50) was found to be 24.2 nM.

Consider `COc1c(=O)n([C@]2(C(F)(F)F)CCOC2)cc2c(N[C@H](C)c3cccc(C(F)F)c3F)nn(C)c(=O)c12` (single isomer, unassigned) [Example 158], for which the IC50 stood at 382 nM.

Take `C[C@@H](Nc1nn(C)c(=O)c2cc(=O)n([C@@]3(C(F)(F)F)CCOC3)cc12)c1cccc(C(F)F)c1F` (single isomer, unassigned) [Example 164]: the concentration for half-maximal inhibition (IC50) turned out to be 19.3 nM.

Regarding `C[C@@H](Nc1nn(C)c(=O)c2cc(=O)n([C@]3(C(F)(F)F)CCOC3)cc12)c1cccc(C(F)F)c1F` (single isomer, unassigned) [Example 165], the half-maximal inhibitory concentration (IC50) came out at 424 nM.

As to `C[C@@H](Nc1nn(C)c(=O)c2cc(=O)n([C@@]3(C(F)(F)F)CCOC3)cc12)c1cccc2c(F)coc12` (single isomer, unassigned) [Example 166], the IC50 was found to be 34.8 nM.

With `C[C@@H](Nc1nn(C)c(=O)c2cc(=O)n([C@]3(C(F)(F)F)CCOC3)cc12)c1cccc2c(F)coc12` (single isomer, unassigned) [Example 167], the IC50 is 607 nM.

On to `C[C@@H](Nc1nn(C)c(=O)c2cc(=O)n([C@@]3(C(F)(F)F)CCOC3)cc12)c1cccc2c1OCC2(F)F` (single isomer, unassigned) [Example 168], for which the 50% inhibitory concentration (IC50) is 13.5 nM.

For `C[C@@H](Nc1nn(C)c(=O)c2cc(=O)n([C@]3(C(F)(F)F)CCOC3)cc12)c1cccc2c1OCC2(F)F` (single isomer, unassigned) [Example 169], the IC50 was determined as 262 nM.

For `CC(=O)N1CC[C@@](n2cc3c(N[C@H](C)c4cccc5c4OCC5(F)F)nn(C)c(=O)c3cc2=O)(C(F)(F)F)C1` (single isomer, unassigned) [Example 170], the 50% inhibitory concentration (IC50) came out at 6.5 nM.

Consider `CC(=O)N1CC[C@](n2cc3c(N[C@H](C)c4cccc5c4OCC5(F)F)nn(C)c(=O)c3cc2=O)(C(F)(F)F)C1` (single isomer, unassigned) [Example 171], for which the IC50 turned out to be 1740 nM.

Regarding `CC(=O)N1CC[C@@](n2cc3c(N[C@H](C)c4cccc5c(F)coc45)nn(C)c(=O)c3cc2=O)(C(F)(F)F)C1` (single isomer, unassigned) [Example 172], the IC50 came out at 13.8 nM.

What is called IC50 is the point on the concentration scale where inhibition reaches its midpoint.
